Like-named read-outs stand apart in the source and are kept apart here.
Tests used:
LNCaP/AR cells = experiment: Inhibition of proliferation of LNCaP/AR prostate cancer cells (CCK-8); type: cell-based
androgen receptor (AR) = target: T1, androgen receptor (AR) (Homo sapiens, UniProt P10275); experiment: Degradation of androgen receptor (AR) protein in VCaP cells by ELISA; type: cell-based; conditions: for inhibition at 0.1 µM: read-out: % degradation
T1 sequence (P10275 1-920): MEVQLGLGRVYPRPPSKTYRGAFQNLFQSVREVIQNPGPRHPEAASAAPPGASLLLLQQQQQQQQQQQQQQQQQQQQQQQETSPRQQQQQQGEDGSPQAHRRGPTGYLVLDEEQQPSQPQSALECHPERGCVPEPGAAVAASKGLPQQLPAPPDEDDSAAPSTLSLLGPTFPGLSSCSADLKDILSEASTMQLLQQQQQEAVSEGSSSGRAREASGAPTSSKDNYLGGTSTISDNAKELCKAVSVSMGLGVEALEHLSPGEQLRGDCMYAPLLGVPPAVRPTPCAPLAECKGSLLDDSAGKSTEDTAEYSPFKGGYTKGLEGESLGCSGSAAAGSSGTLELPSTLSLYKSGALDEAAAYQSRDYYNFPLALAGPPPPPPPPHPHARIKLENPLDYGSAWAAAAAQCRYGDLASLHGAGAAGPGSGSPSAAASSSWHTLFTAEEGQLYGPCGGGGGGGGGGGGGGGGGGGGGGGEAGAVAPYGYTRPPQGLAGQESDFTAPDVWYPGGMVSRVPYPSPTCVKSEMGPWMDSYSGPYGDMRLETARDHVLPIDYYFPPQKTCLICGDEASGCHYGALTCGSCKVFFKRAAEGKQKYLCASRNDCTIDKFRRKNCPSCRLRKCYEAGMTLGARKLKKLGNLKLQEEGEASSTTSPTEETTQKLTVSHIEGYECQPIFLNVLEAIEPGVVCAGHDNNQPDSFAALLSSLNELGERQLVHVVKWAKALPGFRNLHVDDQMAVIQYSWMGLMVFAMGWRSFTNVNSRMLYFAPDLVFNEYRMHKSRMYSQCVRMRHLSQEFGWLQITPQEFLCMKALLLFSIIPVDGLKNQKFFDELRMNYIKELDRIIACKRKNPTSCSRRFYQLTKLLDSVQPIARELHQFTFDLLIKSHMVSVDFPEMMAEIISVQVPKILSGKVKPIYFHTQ

[1] = proliferation of LNCap/AR cells, 6 days, CCK-8, read-out: IC50
[2] = percentage of degraded AR at 100 nM, VCaP cells, 16 h, ELISA
[3] = 144 h, proliferation of LNCap/AR cells, 6 days, CCK-8, read-out: IC50

inhibition at 0.1 µM (androgen receptor (AR); [2]) [%] | IC50 (LNCaP/AR cells; [3]) [nM] | Structure (SMILES) | IC50 (LNCaP/AR cells; [1]) [nM] | % degradation (androgen receptor (AR)) | also measured
50 to 79 | < 100 | Cc1ncsc1-c1ccc([C@H](C)NC(=O)[C@@H]2C[C@@H](O)CN2C(=O)[C@@H](NC(=O)COCCCCCNc2ccc3c(c2)C(=O)N([C@H]2C(C)(C)[C@H](Oc4ccc(C#N)c(Cl)c4)C2(C)C)C3)C(C)(C)C)cc1 [Compound 7, (2S,4R)-1-((S)-2-(2-((5-((2-((1R,3R)-3-(3-chloro-4-cyanophenoxy)-2,2,4,4-tetramethylcyclobutyl)-3-oxoisoindolin-5-yl)amino)pentyl)oxy)acetylamino)-3,3-dimethylbutyryl)-4-hydroxy-N-((S)-1-(4-(4-methylthiazol-5-yl)phenyl)ethyl) pyrrolidine-2-carboxamide] |  |  | 
> 80 | < 100 | Cc1ncsc1-c1ccc(C2(NC(=O)[C@H]3C[C@@H](O)CN3C(=O)[C@@H](NC(=O)COCCCCC#Cc3ccc(C(=O)N[C@H]4C(C)(C)[C@H](Oc5ccc(C#N)c(Br)c5)C4(C)C)cc3)C(C)(C)C)CC2)cc1 [Compound 9, (2R,4R)-1-((S)-2-(2-((6-(4-(((1R,3R)-3-(3-bromo-4-cyanophenoxy)-2,2,4,4-tetramethylcyclobutyl)carbamoyl)phenyl)hex-5-yn-1-yl)oxy)acetylamino)-3,3-dimethylbutyryl)-4-hydroxy-N-(1-(4-(4-methyl-5-yl)phenyl)cyclopropyl) pyrrolidine-2-carboxamide] |  |  | 

Second part, the compound before the results:

Structure (SMILES) | inhibition at 0.1 µM (androgen receptor (AR); [2]) [%] | IC50 (LNCaP/AR cells; [3]) [nM] | IC50 (LNCaP/AR cells; [1]) [nM] | % degradation (androgen receptor (AR)) | also measured
CC(=O)O[C@@H]1C[C@H](C(=O)N[C@@H](C)c2ccc(-c3scnc3C)cc2)N(C(=O)[C@@H](NC(=O)COCCCCC#Cc2ccc3c(c2)C(=O)N(C2C(C)(C)C(Oc4ccc(C#N)c(Cl)c4)C2(C)C)C3)C(C)(C)C)C1 (stereo partly drawn) [Compound 4, (3R,5R)-1-((S)-2-(2-((6-(2-((1R,3R)-3-(3-chloro-4-cyanophenoxy)-2,2,4,4-tetramethylcyclobutyl)-3-oxoisoindolin-5-yl)hex-5-yn-1-yl)oxy)acetylamino)-3,3-dimethylbutyryl)-5-(((S)-1-(4-(4-methylthiazol-5-yl)phenyl)ethyl)carbamoyl) pyrrolidin-3-yl acetate] |  |  | < 100 | C (key: A: >80%; B: 79%-50%; C: 49%-25%; D: <25%) | 
CC(=O)O[C@@H]1C[C@@H](C(=O)N[C@@H](C)c2ccc(-c3scnc3C)cc2)N(C(=O)[C@@H](NC(=O)COCCCCCNc2ccc3c(c2)C(=O)N([C@H]2C(C)(C)[C@H](Oc4ccc(C#N)c(Cl)c4)C2(C)C)C3)C(C)(C)C)C1 [Compound 6, (3R,5S)-1-((S)-2-(2-((5-((2-((1R,3R)-3-(3-chloro-4-cyanophenoxy)-2,2,4,4-tetramethylcyclobutyl)-3-oxoisoindolin-5-yl)amino)pentyl)oxy)acetylamino)-3,3-dimethylbutyryl)-5-(((S)-1-(4-(4-methylthiazol-5)-yl)phenyl)ethyl)carbamoyl) pyrrolidin-3-yl acetate] | 50 to 79 |  |  |  | IC50 (LNCaP/AR cells; LNCaP/AR, 144 h): < 100 nM
CC(=O)O[C@@H]1C[C@@H](C(=O)N[C@@H](C)c2ccc(-c3scnc3C)cc2)N(C(=O)[C@@H](NC(=O)Cn2cc(C#Cc3ccc4c(c3)CN([C@H]3C(C)(C)[C@H](Oc5ccc(C#N)c(Cl)c5)C3(C)C)C4=O)cn2)C(C)(C)C)C1 [Compound 10, (3R,5S)-1-((S)-2-(2-(4-((2-((1r,3r)-3-(3-chloro-4-cyanophenoxy)-2,2,4,4-tetramethylcyclobutyl)-1-oxoisoindolin-5-ylethynyl)-1H-pyrazol-1-yl)acetylamino)-3,3-dimethylbutyryl)-5-((((S)-1-(4-(4-methylthiazol-5-yl)phenyl)ethylcarbamoyl)pyrrolidin-3-yl acetate] |  |  | 100 to 500 | C (key: A: >80%; B: 79%-50%; C: 49%-25%; D: <25%) | 
Cc1ncsc1-c1ccc([C@H](C)NC(=O)[C@@H]2C[C@@H](O)CN2C(=O)[C@@H](NC(=O)Cn2cc(C#Cc3ccc4c(c3)CN(C3C(C)(C)C(Oc5ccc(C#N)c(Cl)c5)C3(C)C)C4=O)cn2)C(C)(C)C)cc1 (stereo partly drawn) [Compound 11] |  |  | < 100 |  | % degradation (androgen receptor (AR); [2]): B (79%-50%)

Source: US20230091225A1, “Bifunctional chimeric heterocyclic compounds for targeted degradation of androgen receptors and use thereof” (HINOVA PHARMACEUTICALS INC., priority 2019, published 2023)
